Results on nine compounds are retold here after article PMC9727064, “Performance assessment and economic analysis of a human Liver-Chip for predictive toxicology” (Communications Medicine, 2022).

Entries after “also recorded” stand apart in the source; their conditions may differ. Read-outs that look alike come from different tables or passages of the source.

For data set [1], the system named is human Liver-Chip (Kupffer cell activation). Nature of the data set: IL-6 and TNF-alpha in Liver-Chip effluent (MSD U-PLEX). To be noted: effluent of Liver-Chips from three donors, no inflammatory stimulant.
Description: Samples were added to plates manually at a 1:2 dilution. Plates were read for cytokine release on the MESO QuickPlex SQ 120 (Meso Scale Discoveries).
The subject of data set [2] is human Liver-Chip (hepatocytes and non-parenchymal cells). On the procedure:
At least four to six brightfield images were acquired per chip for morphology analysis. […] Brightfield images were acquired across three fields of view on days 1, 3, and 7 for each cycle. Cytotoxicity classification was performed while acquiring images for both NPCs and hepatocytes. Images were then scored zero to four by blinded individuals (n = 2) based on severity of agglomeration of cell debris for both channels. The scoring matrix and representative images have been included in the supplement (Supplementary Fig. 1).
Hepatocyte layer on Chips
Non-parenchymal cell layer on Chips
Supplementary Figure 1. (a) Representative brightfield images to depict the cellular morphology score in the top channel of the Liver-Chip which contains hepatocytes. A score of 0 represents no hepatotoxicity detected, which is defined by 95-100% healthy hepatocyte morphology, hexagonal shape containing binucleated cells, clear cell cytoplasm, distinctive cell junctions and less than 5% dead cells. A score of 1 […]
cells. A score of 2 represents mild hepatotoxicity with > 70% monolayer of hepatocytes visible, evidence that cells have begun to lose their distinct cell junctions, many cells contain a granulated cytoplasm but < 30% are dead cells. A score of 3 represents moderate hepatotoxicity with severe granulation of cytoplasm and most of the cells have lost their junctions. Approximately 50% of the cells are considered dead. A score of 4 represents severe hepatotoxicity with agglomeration of cell debris and > 50% of the cells are considered dead. The pores on the membrane become visible as there is no longer a cellular monolayer. (b) Representative brightfield images to depict the cellular morphology score in the bottom channel of the Liver-Chip which contains non-parenchymal cells. A score of 0 represents no cytotoxicity detected, with an intact monolayer and <1% of the cells are dead. A score of 1 represents at least 90% of the monolayer is present and there are <10% dead cells. A score of 2 represents mild cytotoxicity with > 80% of the monolayer present and < 20% are dead cells. A score of 3 represents moderate cytotoxicity with > 50% of the monolayer present and < 50% are dead cells. A score of 4 represents severe cytotoxicity with > 50% of the cells are considered dead. (bar, 50 μm). […]

The conditions of data set [3]: cited from earlier work.
Data set [4] concerns human Liver-Chip (primary human hepatocytes). Description: Liver-Chip albumin production in top channel effluent (ELISA). It counts as cell-based. The note with it: for Albumin change in words: Liver-Chip effluent. An excerpt:
Cycles 1 to 4 tested 6–8 concentrations in duplicate for each of 10–13 drugs. To determine which sampling strategy was optimal for cycles 1 to 4 (16 doses × 1 replicate, 8 × 2, 5 × 3, or 4 × 4), we generated three different “dose-response” synthetic datasets, each distorted by different noise levels (low, medium, or high). For each of these datasets, we performed curve-fitting analyses and calculated the Root Mean Square Error between the “true” and estimated IC50 parameter. […] Some drugs were also repeated across cycles (on different donors or at different concentrations) to ensure experimental robustness. However, to replicate a more typical study design likely to be carried out by scientists in the pharmaceutical industry, we created cycle 5 with 6 drugs, where each was tested in 4 concentrations in triplicate. For each cycle, chips were dosed with drug over 8 days (referred to as Day 0 through Day 7).
The drug dosing concentrations were determined from the unbound human Cmax of each drug. First, the expected fraction of drug unbound in media with 2% FBS was extrapolated from plasma binding data for each drug. Dosing concentrations were then back calculated such that the unbound fraction in media would reflect relevant multiples of unbound human Cmax (Supplementary Data 1).
On the first dosing day (Day 0), all chips were imaged using the ECHO microscope. Five hundred microliters of effluent was collected from all four reservoirs of the pod and placed in a labeled 96-well plate. After collection, all the remaining media was carefully aspirated before dosing with 3.8 mL of corresponding dosing solution. Dosing occurred on study days 0, 2, and 4 for chips flowing at 30 µL/h, and on days 0, 1, 2, 3, 4, 5, and 6 for chips flowing at 150 µL/h. Effluent collection occurred on days 1, 3, and 7.
Top channel outlet effluents were analyzed to quantify albumin and alanine transaminase (ALT) levels on days 1, 3, and 7 using sandwich ELISA kits (Abcam, Albumin ab179887, ALT ab234578) according to vendor-provided protocols. Frozen (−80 °C) effluent samples were thawed overnight at 4 °C prior to assay. The Hamilton Vantage liquid handling platform was used to manage effluent dilutions (1:500 for albumin, neat for ALT), preparation of standard curves, and addition of antibody cocktail. Absorbance at 450 nm was measured using the SynergyNeo Microplate Reader (BioTek).
All statistical analyses were conducted in R[21] (version 4.1.2) and figures were produced using the R package ggplot2[22] (version 3.3.5). The dose-response analysis (Fig. 4) was carried out using the popular drc R package developed by Ritz et al.[23] using the generalized log-logistic dose-response model. The error bars in Figs. 3 and 4, correspond to the standard errors of the mean. The circles in Fig. 3 correspond to the samples used to calculate the corresponding statistics. The analysis of significance in Fig. 3 was performed using paired t-test across different days (same donor) and unpaired t-test across different donors (same day). In Fig. 3 the number of samples used were n = 3 for donor two, and n = 4 for donor three. For both donors, the number of the freshly thawed hepatocyte samples used to estimate the corresponding log2(Fold Change) were n = 4. Finally, the analysis of significance in Fig. 3 was performed using paired t-test.
(In general: An ELISA detects its analyte on a solid surface through an enzyme-linked reagent.)

[5] abbreviates: human, total plasma Cmax, ref Xu, J. J. et al. (36).
[6] abbreviates: concentration causing a 50% reduction in albumin production.
Setting [7] is: expanded drug list, lowest multiplier causing a 50% reduction in albumin production.
Setting [8] is: human, total plasma Cmax, reference data from the literature, no reference.

Turning to `C[C@H]1COc2c(N3CCN(C)CC3)c(F)cc3c(=O)c(C(=O)O)cn1c23` [Levofloxacin], the “IL-6 and TNFα cytokine production after treatment” value in data set [1] is reported as “no concentration-dependent change in cytokine levels; also recorded: did not detect any concentration-related change; also recorded: unable to see any concentration-dependent increase in cytokine production”. In data set [2] (human), the “Morphology Donor 1” value is >15 multiples of the unbound human Cmax, the “Morphology Donor 2” value is >45 multiples of the unbound human Cmax and the “Morphology Donor 3” value was >45 multiples of the unbound human Cmax. Also, in data set [3] (setting [5]), the “Human Cmax Total” value was 15.8 µM. Further, in data set [4] (setting [6]), the “Albumin IC50 Donor 1” value was >15 multiples of the unbound human Cmax, the “Albumin IC50 Donor 2” value is given as >45 multiples of the unbound human Cmax and the “Albumin IC50 Donor 3” value was >45 multiples of the unbound human Cmax.

Regarding `Cc1cn([C@H]2C=C[C@@H](CO)O2)c(=O)[nH]c1=O` [Stavudine], in data set [2] (human), the “Morphology Donor 1” value is 300 unbound human Cmax multiplier and the “Morphology Donor 2” value was 300 unbound human Cmax multiplier. The “Human Cmax Total” value in data set [3] (setting [5]) is 3.46 µM. In addition, in data set [4] (setting [7]), the “Albumin IC50 Donor 1” value is > 60 unbound human Cmax multiplier and the “Albumin IC50 Donor 2” value is recorded as 132 unbound human Cmax multiplier.

Take `Nc1c2c(nc3ccccc13)CCCC2` [Tacrine]: in data set [2] (expanded drug list, lowest concentration causing an increase in morphology score, donor 1), the “Morphology Donor 1” value is > 300 unbound human Cmax multiplier. Besides, the “Morphology Donor 2” value in data set [2] (expanded drug list, lowest concentration causing an increase in morphology score, donor 2) is listed as > 1000 unbound human Cmax multiplier. For the same compound, in data set [3] (setting [5]), the “Human Cmax Total” value was 0.1 µM. Besides, the “Albumin change in words” value in data set [4] was “not associated with any release of ALT or decline in albumin”.

In the case of `CC[C@H]1OC(=O)[C@H](C)C(=O)[C@H](C)[C@@H](O[C@@H]2O[C@H](C)C[C@H](N(C)C)[C@H]2O)[C@](C)(OC)C[C@@H](C)C(=O)[C@H](C)[C@H]2N(CCCCn3cnc(-c4cccnc4)c3)C(=O)O[C@]12C` [Telithromycin], in data set [2], the “Morphological injury score change in words” value is “concomitant increase”. In addition, the “Morphology Donor 1” value in data set [2] (human) was 100 unbound human Cmax multiplier. In addition, the “Human Cmax Total” value in data set [3] (setting [8]) is 2.79 µM. Also, the “Albumin change in words” value in data set [4] was “decrease in albumin”. In addition, the “Albumin IC50 Donor 1” value in data set [4] (setting [7]) is listed as 13 unbound human Cmax multiplier.

As to `Cc1ccc(C(=O)c2cc(O)c(O)c([N+](=O)[O-])c2)cc1` [Tolcapone], the “Morphology Donor 1” value in data set [2] (lowest concentration causing an increase in cellular morphology score, donor 1) is on record as 10 multiples of the unbound human Cmax. In data set [2] (lowest concentration causing an increase in cellular morphology score, donor 2), the “Morphology Donor 2” value is 100 multiples of the unbound human Cmax. For the same compound, the “Human Cmax Total” value in data set [3] (setting [8]) was 47.6 µM. Besides, in data set [4] (setting [6]), the “Albumin IC50 Donor 1” value was 3 multiples of the unbound human Cmax and the “Albumin IC50 Donor 2” value is given as 39 multiples of the unbound human Cmax.

For the compound `Cc1c(C)c2c(c(C)c1O)CCC(C)(COc1ccc(CC3SC(=O)NC3=O)cc1)O2` (stereo not shown) [Troglitazone], in data set [2] (human), the “Morphology Donor 1” value is reported as 300 multiples of the unbound human Cmax and the “Morphology Donor 2” value is on record as 300 multiples of the unbound human Cmax. Further, in data set [3] (setting [5]), the “Human Cmax Total” value was 6.08 µM. Moreover, in data set [4] (setting [6]), the “Albumin IC50 Donor 1” value is listed as 24 multiples of the unbound human Cmax and the “Albumin IC50 Donor 2” value is given as 122 multiples of the unbound human Cmax.

As for `N[C@@H]1[C@H]2CN(c3nc4c(cc3F)c(=O)c(C(=O)O)cn4-c3ccc(F)cc3F)C[C@@H]12` [Trovafloxacin], the “IL-6 and TNFα cytokine production after treatment” value in data set [1] is listed as “no concentration-dependent change in cytokine levels; also recorded: did not detect any concentration-related change; also recorded: unable to see any concentration-dependent increase in cytokine production”. For the same compound, in data set [2] (human), the “Morphology Donor 1” value was 100 multiples of the unbound human Cmax, the “Morphology Donor 2” value is reported as 100 multiples of the unbound human Cmax and the “Morphology Donor 3” value is given as 30 multiples of the unbound human Cmax. In addition, in data set [4] (setting [6]), the “Albumin IC50 Donor 1” value is listed as 82 multiples of the unbound human Cmax, the “Albumin IC50 Donor 2” value is 78 multiples of the unbound human Cmax and the “Albumin IC50 Donor 3” value is recorded as 31 multiples of the unbound human Cmax.

For `CCOC(=O)CN[C@@H](C(=O)N1CC[C@H]1C(=O)NCc1ccc(/C(N)=N\O)cc1)C1CCCCC1` [Ximelagatran], in data set [2] (human), the “Morphology Donor 1” value is 100 unbound human Cmax multiplier and the “Morphology Donor 2” value is listed as 300 unbound human Cmax multiplier. Also, the “Human Cmax Total” value in data set [3] (human therapeutic total plasma Cmax from literature, ref Sivapalasingam, S. & Steigbigel, N. (67)) is 0.45 µM. In addition, in data set [4] (setting [7]), the “Albumin IC50 Donor 1” value was 32 unbound human Cmax multiplier and the “Albumin IC50 Donor 2” value was > 300 unbound human Cmax multiplier.

As for `CC(c1cc2ccccc2s1)N(O)C(N)=O` (stereo not shown) [Zileuton], in data set [2] (human), the “Morphology Donor 1” value was > 100 unbound human Cmax multiplier and the “Morphology Donor 2” value was > 300 unbound human Cmax multiplier. For the same compound, in data set [3] (human therapeutic total plasma Cmax from literature, ref Xu, J. J. et al. (36)), the “Human Cmax Total” value was 13.1 µM. Further, in data set [4] (setting [7]), the “Albumin IC50 Donor 1” value is > 100 unbound human Cmax multiplier and the “Albumin IC50 Donor 2” value was 210 unbound human Cmax multiplier.
